Experimental data as given in patent publication US5276139A, “Haptens useful in evaluating inhibition of PNN elastase by N-substituted azetidinones” (Merck & Co., Inc., priority 1991, dated 1994).

Test system: antibody R674
Assay: Radioimmune assay: displacement of 3H-Compound A' or 3H-Compound B' from antibody R674
Assay type: binding, rabbit
Conditions: up to 10 μM (the highest concentration tested)
Protocol: Non-antibody-bound radioactive isotope was removed from the reaction mixture by its absorption onto dextran-coated activated charcoal. […] The activated charcoal was then suspended to 3% (w/v) in PBS dextran and allowed to stand overnight, washed once again in PBS dextran and resuspended to 3% (w/v) in PBS dextran and stored at 4° C. Immediately before use in the assay, the dextran-coated activated charcoal was diluted 10-fold in DULBECCO's PBS and 1 ml was added to each assay tube. […] The supernatant fluid was decanted into 9 ml of AQUASOL-2 scintillation fluid and radioactivity counted in a beta-counter. Each assay contains charcoal free controls, to which 1 ml PBS was added, for determination of total counts (BO), and antibody free controls for determination of non-specific binding. Percent specific binding was determined by subtracting the value for non-specific binding from the value of total antiserum binding and then dividing by the total radioactivity added.
The antiserum was diluted in PET/GEL buffer (1:12,000 final dilution in the 200 μl assay volume) as described above so that it binds 20-30% of the total radioactivity added. The same diluted stock was then used for all assay tubes with-in the same assay. […] The assay was set up on a competition basis. The unlabeled reactivation product competed with the tritiated reactivation product for binding to the antibody R674. […]

Row | Compound | effect on binding to antibody R674
1 | NC(N)=O [Urea] | without effect
2 | N=C(N)NCCC[C@H](N)C(=O)O [arginine] | without effect
